Key:
clinical MRSA ST239 = assay: Mouse pneumonia model, ST239 (neutropenic mice); format: in vivo, Balb/c mice; conditions: ST239; 48 h; 1 also died in control
[1] = system: human peripheral blood mononuclear cells (PBMC); assay: XTT cytotoxicity testing; format: cell-based; conditions: 2-64 μg/ml, vs drug free control
Experimental: The plates were maintained in a 37° C. incubator.
The cytotoxicity of kuraridin and its analogues were determined by the sodium 3′-[1-(phenylaminocarbonyl)-3,4-tetrazolium]-bis (4-methoxy-6-nitro) benzene sulfonic acid hydrate (XTT) assay.
Serial dilutions of the compounds ranging 2-64 μg/ml were incubated with PBMCs at 37° C. for 72 hrs.

O=C(O[C@@H]1Cc2c(O)cc(O)cc2O[C@@H]1c1ccc(O)c(O)c1)c1cc(O)c(O)c(O)c1 [ECG, epicatechin gallate]
mice died (clinical MRSA ST239): 1 mouse | Cellular toxicity (XTT assay) [1]: not toxic

Source: patent US11690810B2, “Combination treatment of bacterial infection” (The Chinese University of Hong Kong, priority 2018, dated 2023)
